According to patent publication US5049389A, “Novel liposome composition for the treatment of interstitial lung diseases” (priority 1989, dated 1991):

How the values were obtained:
[1] = Thin layer chromatographic assay of lung samples for BDP metabolism; assay type: in vivo, rat; conditions: thin layer chromatography
[2] = rat, in vivo
Description: The amount of drug in the lungs at time zero can be used to determine the amount of free drug in the formulation, since free drug is very rapidly absorbed from the lungs (Dose=free drug+amount in lungs at t=0). This amount also includes any liposome associated drug that was rapidly released ("burst" effect).
The absorption kinetics (sustained release) was determined by measuring percentage of ^14 C BDP remaining in the lungs following the intratracheal instillation of the above described five liposome formulations and one intravenous administration of free drug.
All studies were performed in male Sprague-Dawley rats weighing 250 to 450 g. After fasting for 16 hours, animals were anesthetized by i.m. injection of ketamine (25 mg/kg), xylazine (5 mg/kg) and acepromazine (0.5 mg/ml). During the procedure the animal's body temperature was maintained with a 37° C. heating pad. Additional anesthetic was administered as required, using half the original dose. A midline incision was made in the neck and the right jugular vein and left carotid artery were cannulated with short lengths of polyethylene tubing to which a 23 ga Luer stub adapter (Clay Adams #7565) and plastic 3-way stopcock (Argyle #173518) were attached. Blood samples (0.5-4 ml) were removed from the carotid arterial cannula after first flushing with fresh blood to clear the line. Blood volume removed was replaced with an equal volume of 5% dextrose solution containing 50 U/ml of heparin via the jugular cannula. For intravenous (i.v.) injection studies, drug was injected into the venous cannula with a 500 ul glass syringe via a 22 ga needle and injection cap and flushed with 0.5 to 1.0 ml dextrose solution.
For intratracheal (i.t.) instillation of BDP formulations, (Table V) the trachea was cannulated with a 4 cm long section of Teflon tubing (1.2 mm I.D.), inserted at the level of the fifth tracheal ring below the thyroid cartilage and tied in place with a suture. Excess fluid in the trachea was aspirated through tubing attached to a syringe. […]

[3] = Partition between octanol and phosphate buffer saline; assay type: physicochemical; conditions: pH 7.4
Text: Nearly all (95%) of the BDP was associated with the octanol.

[4] = test system: chronic relapsing Stage II and III pulmonary sarcoidosis; conditions: 1200 or 2400 ug daily inhaled via Nebuhaler; cited from earlier work

| SMILES | metabolism of BDP prior to leaving the lungs [1] | drug absorbed before the first time point [2] | apparent half-life in lungs (elimination of released radiolabel, not absorption) ([2]; 0.008 mg/kg) [h] | ^14 C BDP removed from the lungs (absorbed) ([2]; 0.5 h) [%] | BDP associated with the octanol [3] [%] | improvement in pulmonary sarcoidosis [4] |
| --- | --- | --- | --- | --- | --- | --- |
| CCC(=O)OCC(=O)[C@@]1(OC(=O)CC)[C@@H](C)C[C@H]2[C@@H]3CCC4=CC(=O)C=C[C@]4(C)[C@@]3(Cl)[C@@H](O)C[C@@]21C [Beclomethasone dipropionate, beclomethasone dipropionate] | no detectable metabolism of BDP prior to leaving the lungs | over 98% | 3.0 | 99.7 | 95 | – |
| CCCC1O[C@@H]2C[C@H]3[C@@H]4CCC5=CC(=O)C=C[C@]5(C)[C@H]4[C@@H](O)C[C@]3(C)[C@]2(C(=O)CO)O1 (stereo partly drawn) [budesonide] | – | – | – | – | – | showed improvement in chronic relapsing Stage II and III pulmonary sarcoidosis |
